Laboratory results reported in the supplement of paper PMC13380429.

How the values were obtained:
Conditions in all cases: 72 h
[1] = system: Caco-2; experiment: cell viability relative to DMSO; higher = less toxic
[2] = system: Calu-3; experiment: as above
[3] = system: HepG2; experiment: as above
[4] = system: U2OS; experiment: as above
[5] = system: Vero E6; experiment: as above
[6] = system: Caco-2; experiment: relative viability EC50 (midpoint between 100% and the lowest measured viability); higher = less toxic
[7] = system: Calu-3; experiment: as above
[8] = system: HepG2; experiment: as above
[9] = system: U2OS; experiment: as above
[10] = system: Vero E6; experiment: as above
[11] = system: Caco-2; experiment: drug sensitivity score (DSS) for viability; higher = more toxic; extreme values may be limits of the assay
[12] = system: Calu-3; experiment: as above
[13] = system: HepG2; experiment: as above
[14] = system: U2OS; experiment: as above
[15] = system: Vero E6; experiment: as above

SMILES | cell viability ([1]; 1 nM) [%] | cell viability ([1]; 10 nM) [%] | cell viability ([1]; 100 nM) [%] | cell viability ([1]; 1000 nM) [%] | cell viability ([1]; 10000 nM) [%] | cell viability ([2]; 1 nM) [%] | cell viability ([2]; 10 nM) [%] | cell viability ([2]; 100 nM) [%] | cell viability ([2]; 1000 nM) [%] | cell viability ([2]; 10000 nM) [%] | cell viability ([3]; 1 nM) [%] | cell viability ([3]; 10 nM) [%] | cell viability ([3]; 100 nM) [%] | cell viability ([3]; 1000 nM) [%] | cell viability ([3]; 10000 nM) [%] | cell viability ([4]; 1 nM) [%] | cell viability ([4]; 10 nM) [%] | cell viability ([4]; 100 nM) [%] | cell viability ([4]; 1000 nM) [%] | cell viability ([4]; 10000 nM) [%] | cell viability ([5]; 1 nM) [%] | cell viability ([5]; 10 nM) [%] | cell viability ([5]; 100 nM) [%] | cell viability ([5]; 1000 nM) [%] | cell viability ([5]; 10000 nM) [%] | relative viability EC50 [6] [µM] | relative viability EC50 [7] [µM] | relative viability EC50 [8] [µM] | relative viability EC50 [9] [µM] | relative viability EC50 [10] [µM] | drug sensitivity score [11] | drug sensitivity score [12] | drug sensitivity score [13] | drug sensitivity score [14] | drug sensitivity score [15]
Oc1c(I)cc(Cl)c2cccnc12 [clioquinol] | 93.5 | 92.2 | 108 | 99.7 | 85.8 | 95 | 93.2 | 104 | 87.8 | 97.1 | 101 | 98.7 | 92.8 | 104 | 75.6 | 97.1 | 93.6 | 100 | 96.4 | 99.5 | 106 | 99.3 | 108 | 111 | 87.2 | > 10 | > 10 | > 10 | > 10 | > 10 | 0.2 | 0 | 0.7 | 0 | 0
Nc1ncnc2c1ncn2[C@@H]1O[C@@H]2COP(=O)(O)O[C@H]2[C@H]1O [cyclic-AMP] | 89.8 | 93 | 94.5 | 93.5 | 95.9 | 100 | 107 | 103 | 111 | 95.5 | 97.7 | 100 | 89.5 | 102 | 92.2 | 103 | 103 | 96.1 | 102 | 99.6 | 102 | 98.6 | 93.9 | 102 | 98.9 | > 10 | > 10 | > 10 | > 10 | > 10 | 0 | 0 | 0 | 0 | 0
O=c1cccc2n1C[C@@H]1CNC[C@H]2C1 [cytisine] | 93.3 | 92.2 | 92.4 | 91.3 | 96.5 | 101 | 95.6 | 99 | 95.4 | 104 | 102 | 101 | 96.4 | 97 | 114 | 102 | 96.2 | 101 | 100 | 102 | 88.2 | 98.6 | 92.5 | 97.3 | 108 | > 10 | > 10 | > 10 | > 10 | > 10 | 0 | 0 | 0 | 0 | 0
O=C1c2c(O)cc(O)cc2O[C@H](c2cc(O)c(O)c(O)c2)[C@H]1O [dihydromyricetin] | 102 | 92.3 | 95.6 | 100 | 97.4 | 105 | 98.2 | 93.7 | 111 | 90.3 | 95.8 | 94.5 | 98.5 | 94.7 | 103 | 102 | 95.8 | 103 | 106 | 104 | 96.1 | 96 | 96.4 | 98.4 | 103 | > 10 | > 10 | > 10 | > 10 | > 10 | 0 | 0 | 0 | 0 | 0
O=S(=O)(O)CCSSCCS(=O)(=O)O [dimesna] | 95.7 | 99.5 | 101 | 98.5 | 92.5 | 96.8 | 96.3 | 85.7 | 90.7 | 86.2 | 94.6 | 98.8 | 102 | 98.7 | 97.7 | 104 | 98.7 | 103 | 104 | 101 | 101 | 108 | 104 | 98.5 | 100 | > 10 | > 10 | > 10 | > 10 | > 10 | 0 | 1.4 | 0 | 0 | 0
CCCCc1cc2ccccc2c(OCCN(C)C)n1 [dimethisoquin] | 107 | 102 | 91.5 | 105 | 97.6 | 104 | 97.7 | 92.3 | 95.6 | 98.3 | 103 | 104 | 109 | 91.2 | 102 | 98.9 | 106 | 102 | 105 | 91.3 | 106 | 97.5 | 97.3 | 96.1 | 94.3 | > 10 | > 10 | > 10 | > 10 | > 10 | 0 | 0 | 0 | 0 | 0
CN(C)CCOC(C)(c1ccccc1)c1ccccn1 (stereo not given) [doxylamine] | 106 | 97.6 | 98.6 | 98.1 | 104 | 98.6 | 105 | 98.6 | 106 | 108 | 102 | 101 | 101 | 106 | 99.8 | 104 | 100 | 103 | 98.4 | 101 | 99.5 | 102 | 100 | 100 | 99.6 | > 10 | > 10 | > 10 | > 10 | > 10 | 0 | 0 | 0 | 0 | 0
